Data: patent US8778966B2, “Quinolinone derivatives as PARP and tank inhibitors” (Janssen Pharmaceutica, NV, priority 2007, dated 2014)

target: T1, TANK-2 enzyme (Homo sapiens, UniProt Q9H2K2); test: In vitro Scintillation Proximity Assay (SPA) for TANK-2 inhibitory activity; format: biochemical; conditions: read-out: in vitro SPA assay TANK-2 pIC50 (converted)
T1 construct: made in house
T1 sequence (Q9H2K2 1-1166): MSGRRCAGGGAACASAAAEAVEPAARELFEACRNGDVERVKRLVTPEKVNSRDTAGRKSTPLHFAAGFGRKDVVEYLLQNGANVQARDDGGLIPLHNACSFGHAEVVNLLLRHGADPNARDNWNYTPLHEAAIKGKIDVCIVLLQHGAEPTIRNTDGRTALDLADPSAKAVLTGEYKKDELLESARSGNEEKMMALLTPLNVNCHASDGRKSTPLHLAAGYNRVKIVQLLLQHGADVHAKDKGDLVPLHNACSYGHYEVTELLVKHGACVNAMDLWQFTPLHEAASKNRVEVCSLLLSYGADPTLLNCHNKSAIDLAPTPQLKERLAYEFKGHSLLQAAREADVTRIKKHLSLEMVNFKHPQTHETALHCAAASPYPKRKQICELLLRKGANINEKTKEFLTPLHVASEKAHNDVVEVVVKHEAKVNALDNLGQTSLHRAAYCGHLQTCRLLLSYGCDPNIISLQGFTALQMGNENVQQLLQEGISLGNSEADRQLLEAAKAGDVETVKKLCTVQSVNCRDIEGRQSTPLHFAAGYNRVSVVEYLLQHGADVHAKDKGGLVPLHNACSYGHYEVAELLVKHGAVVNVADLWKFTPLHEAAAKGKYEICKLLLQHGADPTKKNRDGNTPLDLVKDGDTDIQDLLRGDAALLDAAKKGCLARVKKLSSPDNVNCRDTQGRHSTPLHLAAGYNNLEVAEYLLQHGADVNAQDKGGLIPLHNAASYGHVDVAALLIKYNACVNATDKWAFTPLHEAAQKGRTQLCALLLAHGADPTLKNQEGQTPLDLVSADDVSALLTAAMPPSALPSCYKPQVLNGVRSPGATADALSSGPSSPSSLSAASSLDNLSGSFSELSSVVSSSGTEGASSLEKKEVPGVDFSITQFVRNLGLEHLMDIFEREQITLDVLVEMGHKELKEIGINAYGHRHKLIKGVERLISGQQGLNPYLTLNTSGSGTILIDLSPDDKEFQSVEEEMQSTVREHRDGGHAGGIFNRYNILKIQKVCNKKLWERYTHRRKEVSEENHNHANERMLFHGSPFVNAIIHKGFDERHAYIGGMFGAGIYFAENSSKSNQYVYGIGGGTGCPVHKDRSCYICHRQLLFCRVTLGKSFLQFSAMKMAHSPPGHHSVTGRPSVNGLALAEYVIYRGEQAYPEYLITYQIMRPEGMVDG
Method: Compounds of the present invention were tested in an in vitro assay based on SPA technology with Ni Flash plates (96 or 384 well). In principle, the assay relies upon SPA technology for the detection of auto-poly(ADP-ribosyl)ation of TANK-2 protein using [^3H]-nicotinamide adenine dinucleotide ([^3H]-NAD^+) as ADP-ribosyl donor.
A stock solution of 100 nM [3H]-NAD^+/NAD (0.1 mCi/ml, supplier: Perkin Elmer) and 0.25 μM NAD (Sigma) was made in assay buffer (60 mM Tris/HCl, pH 7.4; 0.9 mM DTT; 6 mM MgCl2). The TANK-2 enzyme was produced as described in EP1238063. 60 μl of assay buffer, together with 1 μl of compound in DMSO, 20 μl of [^3H]-NAD^+/NAD and 20 μl of TANK-2 enzyme (final concentration 8 μg/ml) was added per well into a 96-well Ni-coated flash plate (Perkin Elmer). After incubation of the mixture for 120 min. at room temperature, the reaction was terminated by adding 60 μl of stopsolution (42.6 mg NAD in 6 ml H2O). The plates were covered with a plate sealer and placed in a TopCountNXT™ (Packard) for scintillation counting. Values were expressed as counts per minute (cpm). For each experiment, controls (containing TANK-2 enzyme and DMSO without compound), a blank incubation (containing DMSO but no TANK-2 enzyme or compound) and samples (containing TANK-2 enzyme and compound dissolved in DMSO) were run in parallel. All compounds tested were dissolved and eventually further diluted in DMSO. In first instance, compounds were tested at a concentration of 10^−5M. […] In each test, the blank value was subtracted from both the control and the sample values. The control sample represented maximal TANK-2 enzyme activity. For each sample, the amount of cpm was expressed as a percentage of the mean cpm value of the controls. When appropriate, IC50-values (concentration of the drug, needed to reduce the TANK-2 enzyme activity to 50% of the control) were computed using linear interpolation between the experimental points just above and below the 50% level. Herein the effects of test compounds are expressed as pIC50 (the negative log value of the IC50-value). As reference compounds, 3-aminobenzamide and 4-amino-1,8-naphtalimide were included to validate the SPA assay. Herein the assay was described using 96-well plates. In the assay using 384-well plates the same final concentrations were used and volumes were adapted.

Row | IC50 [nM] | Compound
1 | 79.4 | C#Cc1cccc(CC(C)(C#N)c2ccc3cc(CC)c(=O)[nH]c3c2)c1 (racemic) [Compound 168]
2 | 631 | Cc1cc2ccc([C@@](C)(C#N)CCOc3ccccc3)cc2[nH]c1=O (single isomer, unassigned) [Compound 164]
3 | 63.1 | CCc1cc2ccc(C(C)(C#N)Cc3ccccc3Br)cc2[nH]c1=O (centres unmarked) [Compound 104]
4 | 20 | CCc1cc2ccc(C(C)(C#N)Cc3ccccc3C)cc2[nH]c1=O (centres unmarked) [Compound 105]
5 | 31.6 | CCc1cc2ccc(C(C)(C#N)Cc3cccc(C)c3)cc2[nH]c1=O (centres unmarked) [Compound 107]
6 | 126 | CCc1cc2ccc(C(C)(C#N)Cc3ccc(C(F)(F)F)cc3)cc2[nH]c1=O (centres unmarked) [Compound 108]
7 | 126 | CCc1cc2ccc(C(C)(C#N)Cc3cccc(OC(F)(F)F)c3)cc2[nH]c1=O (centres unmarked) [Compound 110]
8 | 31.6 | CCc1cc2ccc(C(C)(C#N)Cc3ccc(C#N)cc3)cc2[nH]c1=O (centres unmarked) [Compound 111]
9 | 501 | CCc1cc2ccc(C(C)(C#N)Cc3ccc(OC(F)(F)F)cc3)cc2[nH]c1=O (centres unmarked) [Compound 114]
10 | 79.4 | CCc1cc2ccc(C(C)(C#N)Cc3c(F)c(F)c(F)c(F)c3F)cc2[nH]c1=O (centres unmarked) [Compound 116]
11 | 31.6 | CCc1cc2ccc(C(C)(C#N)Cc3ccc(Br)cc3)cc2[nH]c1=O (centres unmarked) [Compound 118]
12 | 31.6 | CCc1cc2ccc(C(C)(C#N)Cc3ccc(OC)cc3)cc2[nH]c1=O (centres unmarked) [Compound 119]
13 | 50.1 | CCc1cc2ccc(C(C)(C#N)Cc3cccc(F)c3F)cc2[nH]c1=O (centres unmarked) [Compound 120]
14 | 79.4 | CCc1cc2ccc(C(C)(C#N)Cc3cccc(Cl)c3Cl)cc2[nH]c1=O (centres unmarked) [Compound 121]
15 | 100 | CCc1cc2ccc(C(C)(C#N)Cc3ccc4ccccc4c3)cc2[nH]c1=O (centres unmarked) [Compound 122]
16 | 100 | CCc1cc2ccc(C(C)(C#N)Cc3ccc4c(c3)nnn4C)cc2[nH]c1=O (centres unmarked) [Compound 123]
17 | 100 | CCc1cc2ccc(C(C)(C#N)Cc3ccc4c(c3)OCCO4)cc2[nH]c1=O (centres unmarked) [Compound 124]
18 | 100 | CCc1cc2ccc(C(C)(C#N)Cc3cc(C)cc(C)c3)cc2[nH]c1=O (centres unmarked) [Compound 125]
19 | 398 | CCc1cc2ccc(C(C)(C#N)Cc3cc(F)cc(C(F)(F)F)c3)cc2[nH]c1=O (centres unmarked) [Compound 127]
20 | 126 | CCc1cc2ccc(C(C)(C#N)Cc3cccc(S(C)(=O)=O)c3)cc2[nH]c1=O (centres unmarked) [Compound 129]
21 | 1000 | CCc1cc2ccc(C(C)(C#N)Cc3cc(C(F)(F)F)cc(C(F)(F)F)c3)cc2[nH]c1=O (centres unmarked) [Compound 131]
22 | 63.1 | CCc1cc2ccc(C(C)(C#N)Cc3cccc(C)c3F)cc2[nH]c1=O (centres unmarked) [Compound 132]
23 | 200 | CCc1cc2ccc(C(C)(C#N)Cc3cc(Br)cc(Br)c3)cc2[nH]c1=O (centres unmarked) [Compound 133]
24 | 126 | CCc1cc2ccc(C(C)(C#N)Cc3cccc(C(F)(F)F)c3F)cc2[nH]c1=O (centres unmarked) [Compound 134]
25 | 50.1 | CCc1cc2ccc(C(C)(C#N)Cc3c(Cl)cccc3Cl)cc2[nH]c1=O (centres unmarked) [Compound 135]

Row | IC50 [nM] | Compound
26 | 50.1 | CCc1cc2ccc(C(C)(C#N)Cc3c(Cl)cccc3Br)cc2[nH]c1=O (centres unmarked) [Compound 136]
27 | 79.4 | CCc1cc2ccc(C(C)(C#N)Cc3ccc(F)cc3Br)cc2[nH]c1=O (centres unmarked) [Compound 139]
28 | 126 | CCc1cc2ccc(C(C)(C#N)Cc3cccc(Cl)c3)cc2[nH]c1=O (centres unmarked) [Compound 140]
29 | 126 | CCc1cc2ccc(C(C)(C#N)Cc3cc(Cl)cc(Cl)c3)cc2[nH]c1=O (centres unmarked) [Compound 141]
30 | 158 | CCOc1ccccc1OCCC(C)(C#N)c1ccc2cc(CC)c(=O)[nH]c2c1 (centres unmarked) [Compound 142]
31 | 100 | CCc1cc2ccc(C(C)(C#N)CCOc3ccc(F)cc3)cc2[nH]c1=O (centres unmarked) [Compound 144]
32 | 50.1 | CCc1cc2ccc(C(C)(C#N)CCOc3ccccc3)cc2[nH]c1=O (centres unmarked) [Compound 145]
33 | 158 | CCc1cc2ccc(C(C)(C#N)CCOc3ccc(Cl)cc3)cc2[nH]c1=O (centres unmarked) [Compound 146]
34 | 79.4 | CCc1cc2ccc(C(C)(C#N)CCOc3ccc(OC)cc3)cc2[nH]c1=O (centres unmarked) [Compound 147]
35 | 200 | CCc1cc2ccc(C(C)(C#N)CCOc3ccc(Cl)cc3Cl)cc2[nH]c1=O (centres unmarked) [Compound 154]
36 | 126 | CCc1cc2ccc(C(C)(C#N)CCOc3ccc(SC)cc3)cc2[nH]c1=O (centres unmarked) [Compound 155]
37 | 398 | CCc1cc2ccc(C(C)(C#N)CC3CN(C)c4ccccc4O3)cc2[nH]c1=O (centres unmarked) [Compound 156]
38 | 316 | CCc1cc2ccc(C(C)(C#N)CCOc3ccc4ccccc4c3)cc2[nH]c1=O (centres unmarked) [Compound 157]
39 | 501 | CCc1cc2ccc(C(C)(C#N)CCOc3cccc4ccccc34)cc2[nH]c1=O (centres unmarked) [Compound 158]
40 | 251 | CCc1cc2ccc(C(C)(C#N)CCOc3ccccc3C(C)=O)cc2[nH]c1=O (centres unmarked) [Compound 159]
41 | 316 | CCc1cc2ccc(C(C)(C#N)CCOc3ccc(Br)cc3)cc2[nH]c1=O (centres unmarked) [Compound 160]
42 | 158 | CCc1cc2ccc(C(C)(C#N)CCOc3ccc4oc(C)c(C)c4c3)cc2[nH]c1=O (centres unmarked) [Compound 162]
43 | 79.4 | CCc1cc2ccc(C(C)(C#N)Cc3cccc(CCC#N)c3)cc2[nH]c1=O (centres unmarked) [Compound 165]
44 | 126 | CCc1cc2ccc(C(C#N)(CCOc3ccccc3)C3CC3)cc2[nH]c1=O (centres unmarked) [Compound 166]
45 | 794 | CCc1cc2ccc(C(C)(C#N)CCOc3ccc(C(C)(C)C)cc3)cc2[nH]c1=O (centres unmarked) [Compound 167]
46 | 2510 | CCc1cc2ccc(C(C)(C#N)CC#Cc3cccc(F)c3)cc2[nH]c1=O (centres unmarked) [Compound 184]
47 | 1000 | Cc1cc2ccc([C@@](C)(C#N)[C@@H]3CCc4cc(C#N)ccc43)cc2[nH]c1=O [Compound 245]
48 | 501 | CCc1cc2ccc(C(C#N)(CC)CCOc3ccc(C#N)cc3)cc2[nH]c1=O (centres unmarked) [Compound 271]
49 | 3160 | Cc1cc2ccc([C@@](C)(C#N)[C@H]3CCc4cc(C#N)ccc43)cc2[nH]c1=O [Compound 389]
50 | 631 | CCc1cc2ccc(C(C#N)(CC)C3CCc4ccc(F)cc43)cc2[nH]c1=O (centres unmarked) [Compound 391]
